The results in this text go back to article PMC4457528, “Identification of Novel Small Molecule Inhibitors of Oncogenic RET Kinase” (PLoS ONE, 2015).

Residue numbers refer to the chain shown, from its start. Where two headings read alike, the source gives them in different places.

Holding throughout (assay): KinomeScan kinase panel, single concentration 10 µM
Type in all cases: binding

Assay [1] deals with T1, KinomeScan kinase panel (Homo sapiens, UniProt Q16816).
T1 construct: purchased DiscoveRx (KinomeScan)
Conditions: PHKG1, 10 µM; read-out: score (%).

In assay [2] the target is T2, KinomeScan kinase panel (Homo sapiens, UniProt P15056).
T2 construct: purchased DiscoveRx (KinomeScan)
T2 sequence (P15056 whole entry): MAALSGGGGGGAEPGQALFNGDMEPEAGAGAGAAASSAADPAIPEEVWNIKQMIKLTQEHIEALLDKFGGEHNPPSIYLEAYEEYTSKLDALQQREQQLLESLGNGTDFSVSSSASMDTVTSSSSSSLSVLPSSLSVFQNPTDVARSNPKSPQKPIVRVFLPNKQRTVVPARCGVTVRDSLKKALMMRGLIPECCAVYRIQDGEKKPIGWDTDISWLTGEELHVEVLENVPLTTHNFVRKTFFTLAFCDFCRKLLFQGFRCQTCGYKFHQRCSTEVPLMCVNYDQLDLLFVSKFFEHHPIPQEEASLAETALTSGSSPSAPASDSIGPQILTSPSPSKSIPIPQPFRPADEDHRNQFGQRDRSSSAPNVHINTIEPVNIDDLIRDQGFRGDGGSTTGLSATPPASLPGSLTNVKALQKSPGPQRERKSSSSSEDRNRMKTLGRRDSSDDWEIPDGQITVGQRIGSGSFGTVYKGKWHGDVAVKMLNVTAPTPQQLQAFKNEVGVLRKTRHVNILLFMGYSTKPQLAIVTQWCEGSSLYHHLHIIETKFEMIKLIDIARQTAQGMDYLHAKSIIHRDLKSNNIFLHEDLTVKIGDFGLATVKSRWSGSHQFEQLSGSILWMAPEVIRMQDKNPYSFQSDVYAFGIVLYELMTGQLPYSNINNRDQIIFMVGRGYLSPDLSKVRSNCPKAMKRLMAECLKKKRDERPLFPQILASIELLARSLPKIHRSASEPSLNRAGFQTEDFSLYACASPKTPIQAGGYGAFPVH
As to conditions: BRAF, 10 µM; read-out: score (%).

The target of assay [3] is T3, KinomeScan kinase panel (Homo sapiens, UniProt Q9H4B4).
T3 construct: purchased DiscoveRx (KinomeScan)
Conditions: read-out: score (%).

The target of assay [4] is T4, KinomeScan kinase panel (Homo sapiens, UniProt P36888).
T4 construct: purchased DiscoveRx (KinomeScan)
T4 sequence (P36888 27-993): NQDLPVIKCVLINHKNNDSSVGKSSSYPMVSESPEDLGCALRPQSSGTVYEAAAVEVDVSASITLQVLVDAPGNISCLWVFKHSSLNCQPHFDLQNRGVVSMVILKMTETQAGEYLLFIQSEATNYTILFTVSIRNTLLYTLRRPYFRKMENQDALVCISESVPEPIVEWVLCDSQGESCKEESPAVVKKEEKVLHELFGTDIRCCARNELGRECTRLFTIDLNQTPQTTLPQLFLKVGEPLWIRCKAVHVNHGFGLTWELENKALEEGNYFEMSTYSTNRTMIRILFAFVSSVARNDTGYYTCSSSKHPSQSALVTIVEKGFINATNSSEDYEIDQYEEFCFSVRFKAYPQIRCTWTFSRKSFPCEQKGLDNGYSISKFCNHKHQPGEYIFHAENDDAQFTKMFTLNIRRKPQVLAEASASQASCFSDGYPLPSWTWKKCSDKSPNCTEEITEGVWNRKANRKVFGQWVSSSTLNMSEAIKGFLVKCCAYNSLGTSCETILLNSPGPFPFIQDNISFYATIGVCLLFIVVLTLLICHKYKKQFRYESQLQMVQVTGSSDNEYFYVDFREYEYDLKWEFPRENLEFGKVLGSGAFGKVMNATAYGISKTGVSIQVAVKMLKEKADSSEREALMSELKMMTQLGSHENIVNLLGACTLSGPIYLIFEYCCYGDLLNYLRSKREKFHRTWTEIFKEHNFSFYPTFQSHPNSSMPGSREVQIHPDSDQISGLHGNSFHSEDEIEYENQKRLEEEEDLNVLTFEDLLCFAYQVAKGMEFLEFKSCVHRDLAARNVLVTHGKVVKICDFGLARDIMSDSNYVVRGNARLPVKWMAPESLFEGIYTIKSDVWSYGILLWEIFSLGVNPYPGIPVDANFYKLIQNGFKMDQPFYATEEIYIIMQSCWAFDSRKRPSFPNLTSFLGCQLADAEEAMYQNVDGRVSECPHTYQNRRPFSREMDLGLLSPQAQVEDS
Conditions: FLT3, 10 µM; read-out: score (%).

The target in assay [5] is T5, KinomeScan kinase panel (Homo sapiens, UniProt Q15569).
T5 construct: purchased DiscoveRx (KinomeScan)
T5 sequence (Q15569 whole entry): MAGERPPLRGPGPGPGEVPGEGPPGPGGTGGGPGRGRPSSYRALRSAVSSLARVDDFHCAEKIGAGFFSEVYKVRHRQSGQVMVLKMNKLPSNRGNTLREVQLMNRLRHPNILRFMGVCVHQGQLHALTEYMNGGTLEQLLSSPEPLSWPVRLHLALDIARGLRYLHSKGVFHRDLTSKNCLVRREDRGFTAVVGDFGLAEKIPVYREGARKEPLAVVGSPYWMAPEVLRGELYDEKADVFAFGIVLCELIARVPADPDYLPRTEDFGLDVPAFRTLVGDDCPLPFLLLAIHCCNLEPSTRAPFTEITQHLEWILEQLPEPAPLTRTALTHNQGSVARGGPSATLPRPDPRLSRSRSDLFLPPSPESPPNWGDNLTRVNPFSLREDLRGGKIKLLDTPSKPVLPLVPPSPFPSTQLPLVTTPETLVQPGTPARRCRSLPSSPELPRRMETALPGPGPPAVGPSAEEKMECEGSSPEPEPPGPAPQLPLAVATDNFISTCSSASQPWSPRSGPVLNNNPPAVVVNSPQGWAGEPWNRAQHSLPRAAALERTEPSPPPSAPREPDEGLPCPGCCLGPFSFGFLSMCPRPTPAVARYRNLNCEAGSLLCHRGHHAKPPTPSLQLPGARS
As to conditions: read-out: score (%).

Assay [6] deals with T6, KinomeScan kinase panel (Homo sapiens, UniProt P16234).
T6 construct: purchased DiscoveRx (KinomeScan)
As to conditions: PDGFRA, 10 µM; read-out: score (%).

The target of assay [7] is T7, KinomeScan kinase panel (Homo sapiens, UniProt P31749).
T7 construct: purchased DiscoveRx (KinomeScan)
T7 sequence (P31749 whole entry): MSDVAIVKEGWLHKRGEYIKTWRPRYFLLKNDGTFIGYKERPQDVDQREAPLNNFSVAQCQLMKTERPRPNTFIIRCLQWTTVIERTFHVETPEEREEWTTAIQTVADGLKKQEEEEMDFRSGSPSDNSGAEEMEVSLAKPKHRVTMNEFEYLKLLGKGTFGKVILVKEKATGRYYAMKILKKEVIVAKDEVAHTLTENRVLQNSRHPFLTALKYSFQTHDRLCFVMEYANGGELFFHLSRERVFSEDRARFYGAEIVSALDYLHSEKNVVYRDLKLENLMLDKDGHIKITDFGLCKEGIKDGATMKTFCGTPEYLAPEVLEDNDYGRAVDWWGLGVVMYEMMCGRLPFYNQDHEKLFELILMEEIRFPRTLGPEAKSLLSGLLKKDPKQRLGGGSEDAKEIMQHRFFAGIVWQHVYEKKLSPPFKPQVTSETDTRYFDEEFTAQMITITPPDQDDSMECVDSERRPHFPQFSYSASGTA
As to conditions: AKT1, 10 µM; read-out: score (%).

The target in assay [8] is T8, KinomeScan kinase panel (Homo sapiens, UniProt P27361).
T8 construct: purchased DiscoveRx (KinomeScan)
T8 sequence (P27361 whole entry): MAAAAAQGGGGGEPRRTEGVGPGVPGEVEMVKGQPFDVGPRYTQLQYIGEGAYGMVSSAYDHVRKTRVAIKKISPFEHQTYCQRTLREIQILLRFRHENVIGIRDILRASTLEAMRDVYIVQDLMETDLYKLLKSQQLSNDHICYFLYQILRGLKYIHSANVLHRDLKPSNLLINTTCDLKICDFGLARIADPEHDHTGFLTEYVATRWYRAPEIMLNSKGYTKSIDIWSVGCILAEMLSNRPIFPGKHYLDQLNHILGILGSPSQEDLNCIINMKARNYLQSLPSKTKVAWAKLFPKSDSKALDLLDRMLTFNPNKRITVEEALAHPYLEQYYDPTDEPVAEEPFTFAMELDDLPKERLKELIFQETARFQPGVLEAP
Conditions: ERK1, 10 µM; read-out: score (%).

The target in assay [9] is T9, KinomeScan kinase panel (Homo sapiens, UniProt Q14012).
T9 construct: purchased DiscoveRx (KinomeScan)
T9 sequence (Q14012 whole entry): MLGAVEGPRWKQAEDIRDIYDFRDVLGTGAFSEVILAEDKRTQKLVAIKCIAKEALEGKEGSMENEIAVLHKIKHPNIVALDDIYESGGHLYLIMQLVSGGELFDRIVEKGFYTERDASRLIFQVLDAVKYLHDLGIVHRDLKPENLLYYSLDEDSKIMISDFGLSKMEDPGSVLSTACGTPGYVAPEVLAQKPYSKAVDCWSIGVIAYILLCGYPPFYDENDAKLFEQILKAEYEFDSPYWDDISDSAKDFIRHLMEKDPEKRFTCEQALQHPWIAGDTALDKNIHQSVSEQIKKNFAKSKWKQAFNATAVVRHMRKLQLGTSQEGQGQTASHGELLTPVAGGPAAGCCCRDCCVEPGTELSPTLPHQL
As to conditions: CAMK1, 10 µM; read-out: score (%).

Assay [10] addresses T10, KinomeScan kinase panel (Homo sapiens, UniProt Q8N4C8).
T10 construct: purchased DiscoveRx (KinomeScan)
As to conditions: MINK, 10 µM; read-out: score (%).

Assay [11] addresses T11, KinomeScan kinase panel (Homo sapiens, UniProt P00519, M351T).
T11 construct: purchased DiscoveRx (KinomeScan)
Conditions: 10 µM, read-out: score (%).

In assay [12] the target is T12, KinomeScan kinase panel (Homo sapiens, UniProt P36888, K663Q).
T12 construct: purchased DiscoveRx (KinomeScan)
T12 sequence (P36888 27-993 K663Q): T4 sequence (P36888 27-993) with K637Q
Conditions: FLT3(K663Q), 10 µM; read-out: score (%).

Assay [13] has as its target T13, KinomeScan kinase panel (Homo sapiens, UniProt P42336, E545K).
T13 construct: purchased DiscoveRx (KinomeScan)
Conditions: PIK3CA(E545K), 10 µM; read-out: score (%).

T13 sequence (P42336 whole entry E545K): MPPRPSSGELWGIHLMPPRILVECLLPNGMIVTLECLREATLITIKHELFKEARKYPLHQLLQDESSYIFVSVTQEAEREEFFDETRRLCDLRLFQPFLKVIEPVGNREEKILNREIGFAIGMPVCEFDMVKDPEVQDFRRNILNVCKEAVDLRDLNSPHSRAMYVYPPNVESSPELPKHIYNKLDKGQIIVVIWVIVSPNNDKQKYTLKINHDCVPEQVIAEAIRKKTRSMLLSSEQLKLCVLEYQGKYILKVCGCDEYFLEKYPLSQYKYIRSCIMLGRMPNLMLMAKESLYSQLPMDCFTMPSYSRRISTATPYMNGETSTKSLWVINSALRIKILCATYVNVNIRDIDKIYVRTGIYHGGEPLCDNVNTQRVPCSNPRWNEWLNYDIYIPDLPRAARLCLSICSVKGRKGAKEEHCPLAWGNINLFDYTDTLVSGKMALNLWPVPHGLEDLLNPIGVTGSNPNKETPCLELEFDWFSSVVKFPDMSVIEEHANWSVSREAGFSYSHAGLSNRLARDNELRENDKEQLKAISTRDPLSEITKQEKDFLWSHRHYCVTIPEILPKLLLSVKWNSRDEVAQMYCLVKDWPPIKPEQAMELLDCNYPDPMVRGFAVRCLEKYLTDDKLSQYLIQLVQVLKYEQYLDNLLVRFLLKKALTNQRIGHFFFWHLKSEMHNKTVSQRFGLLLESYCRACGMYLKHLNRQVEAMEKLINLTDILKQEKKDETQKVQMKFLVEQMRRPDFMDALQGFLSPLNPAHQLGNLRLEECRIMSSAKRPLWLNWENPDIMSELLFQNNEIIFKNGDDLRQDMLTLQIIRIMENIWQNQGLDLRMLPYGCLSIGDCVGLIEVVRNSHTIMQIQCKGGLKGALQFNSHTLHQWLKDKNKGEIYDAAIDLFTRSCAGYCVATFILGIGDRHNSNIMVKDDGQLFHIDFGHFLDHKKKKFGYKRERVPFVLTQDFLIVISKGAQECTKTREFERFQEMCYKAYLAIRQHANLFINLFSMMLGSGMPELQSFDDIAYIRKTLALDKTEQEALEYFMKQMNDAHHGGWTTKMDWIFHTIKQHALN
T10 sequence (Q8N4C8 whole entry): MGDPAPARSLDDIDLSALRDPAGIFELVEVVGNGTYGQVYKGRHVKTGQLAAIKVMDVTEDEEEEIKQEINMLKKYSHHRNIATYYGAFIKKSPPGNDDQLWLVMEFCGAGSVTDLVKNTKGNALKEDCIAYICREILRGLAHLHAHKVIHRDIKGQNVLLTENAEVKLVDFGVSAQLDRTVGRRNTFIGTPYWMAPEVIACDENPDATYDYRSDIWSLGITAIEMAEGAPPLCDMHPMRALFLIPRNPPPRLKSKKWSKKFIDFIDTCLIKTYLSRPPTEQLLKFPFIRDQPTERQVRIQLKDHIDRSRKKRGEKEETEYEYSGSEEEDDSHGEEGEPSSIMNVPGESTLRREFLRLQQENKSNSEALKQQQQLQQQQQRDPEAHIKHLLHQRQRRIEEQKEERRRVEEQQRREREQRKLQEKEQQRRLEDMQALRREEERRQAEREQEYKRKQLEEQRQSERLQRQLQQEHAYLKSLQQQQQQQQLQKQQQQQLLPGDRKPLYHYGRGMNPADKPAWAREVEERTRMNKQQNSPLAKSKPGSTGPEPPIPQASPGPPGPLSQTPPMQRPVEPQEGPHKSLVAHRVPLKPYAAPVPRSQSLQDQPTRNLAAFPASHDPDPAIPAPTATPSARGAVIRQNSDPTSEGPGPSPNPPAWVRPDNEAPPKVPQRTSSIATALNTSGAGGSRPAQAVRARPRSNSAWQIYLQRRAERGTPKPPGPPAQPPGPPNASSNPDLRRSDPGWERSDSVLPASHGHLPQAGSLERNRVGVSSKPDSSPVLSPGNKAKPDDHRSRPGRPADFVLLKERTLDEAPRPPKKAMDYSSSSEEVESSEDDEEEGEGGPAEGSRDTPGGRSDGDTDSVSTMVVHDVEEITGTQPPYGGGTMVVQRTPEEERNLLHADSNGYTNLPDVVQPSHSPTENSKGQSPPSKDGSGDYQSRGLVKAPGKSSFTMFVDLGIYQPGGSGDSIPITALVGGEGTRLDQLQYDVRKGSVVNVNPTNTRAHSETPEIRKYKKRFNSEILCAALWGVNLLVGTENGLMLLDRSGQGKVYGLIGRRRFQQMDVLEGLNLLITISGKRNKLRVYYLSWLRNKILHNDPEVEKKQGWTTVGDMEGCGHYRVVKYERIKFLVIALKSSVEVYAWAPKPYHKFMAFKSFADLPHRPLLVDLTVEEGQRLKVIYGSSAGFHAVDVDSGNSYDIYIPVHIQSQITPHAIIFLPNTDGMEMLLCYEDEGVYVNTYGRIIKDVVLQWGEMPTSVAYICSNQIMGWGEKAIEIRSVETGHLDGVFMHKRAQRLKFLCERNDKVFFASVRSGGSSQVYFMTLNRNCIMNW

Regarding `CCN1CCN(Cc2ccc(NC(=O)c3ccc(C)c(NC(=O)c4cncc(-c5cccs5)c4)c3)cc2C(F)(F)F)CC1` [ALW-II-41-27], the remaining binding at 10 µM is greater than 30% at KinomeScan kinase panel [1]; 1.8% at KinomeScan kinase panel [2]; greater than 30% on KinomeScan kinase panel [3] (PLK3, 10 µM); 0.65% at KinomeScan kinase panel [4]; greater than 30% on KinomeScan kinase panel [5] (kinase TESK1, 10 µM); 0% on KinomeScan kinase panel [6]. In addition, the remaining binding at 10 µM on KinomeScan kinase panel [7] is 4.4%; on KinomeScan kinase panel [8], greater than 30%; on KinomeScan kinase panel [9], greater than 30%; on KinomeScan kinase panel [10] it was 0.65%; at KinomeScan kinase panel [11] (ABL1(M351T)), 0.55%; on KinomeScan kinase panel [12] it was 1%. The remaining binding at 10 µM on KinomeScan kinase panel [13] is greater than 30%.

In the case of `CCN1CCN(Cc2ccc(NC(=O)c3ccc(C)c(/C=C/c4cnc5[nH]ccc5c4Cl)c3)cc2C(F)(F)F)CC1` [HG-6-63-01, (E)-3-(2-(4-chloro-1H-pyrrolo[2,3-b]pyridin-5-yl)vinyl)-N-(4-((4-ethylpiperazin-1-yl)methyl)-3-(trifluoromethyl)phenyl)-4-methylbenzamide], the remaining binding at 10 µM was greater than 30% on KinomeScan kinase panel [1]; 1.2% on KinomeScan kinase panel [2]; greater than 30% on KinomeScan kinase panel [3] (PLK3, 10 µM); 0.1% at KinomeScan kinase panel [4]; 4.2% on KinomeScan kinase panel [5] (TESK1, 10 µM); 0% at KinomeScan kinase panel [6]. Besides, the remaining binding at 10 µM at KinomeScan kinase panel [7] was greater than 30%; on KinomeScan kinase panel [8], greater than 30%; at KinomeScan kinase panel [9], greater than 30%; on KinomeScan kinase panel [10], 4.2%; on KinomeScan kinase panel [11] (ABL1(M351T)) it was 0.1%; on KinomeScan kinase panel [12], 0%. The remaining binding at 10 µM on KinomeScan kinase panel [13] was greater than 30%.

On to `CCN1CCN(Cc2ccc(NC(=O)c3ccc(C)c(C#Cc4cccnc4)c3)cc2C(F)(F)F)CC1` [XMD15-44], for which the remaining binding at 10 µM is 88% on KinomeScan kinase panel [1]; 0.05% at KinomeScan kinase panel [2]; 90% on KinomeScan kinase panel [3] (kinase PLK3, 10 µM); 0.25% at KinomeScan kinase panel [4]; 60% at KinomeScan kinase panel [5] (kinase TESK1, 10 µM); 0% on KinomeScan kinase panel [6]. For the same compound, the remaining binding at 10 µM on KinomeScan kinase panel [7] is greater than 30%; on KinomeScan kinase panel [8], greater than 30%; at KinomeScan kinase panel [9] it was greater than 30%; at KinomeScan kinase panel [10], 2.5%; on KinomeScan kinase panel [11] (ABL1(M351T)-phosphorylated) it was 2.6%; at KinomeScan kinase panel [12], 0%. For the same compound, the remaining binding at 10 µM on KinomeScan kinase panel [13] came out at 85%.
